Test results taken from patent US20060003951A1, “Anti-viral 7-deaza L-nucleosides” (Micrologix Biotech Inc., priority 2001, published 2006).

- melting point: 214.8 to 215.5 °C
SMILES: Nc1ncnc2c1ccn2[C@@H]1C[C@@H](O)[C@H](CO)O1
